Data: the supplement of paper PMC10307832

Legend:
Test in all cases: relative viability (nuclei count vs DMSO), 5 days (fraction); higher = more cells survive
Dabrafenib + Vorinostat = compound: CC(C)(C)c1nc(-c2cccc(NS(=O)(=O)c3c(F)cccc3F)c2F)c(-c2ccnc(N)n2)s1 [Dabrafenib] + O=C(CCCCCCC(=O)Nc1ccccc1)NO [Vorinostat] (partner 1 µM)
Outline: (§1)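 Relative viability divides the nuclei count in treated wells by that in vehicle wells. Lung cancer cell lines were seeded in 1536-well plates, dosed by pin tool the next day, and fixed and stained after 5 days in one step with final 0.05% Triton X-100, 1% formaldehyde and 1 ug/ml Hoechst. Dosing was a single drug or a fixed anchor-drug dose plus five library-drug doses (not always all listed) in √10 steps, and values are medians of duplicate plates imaged at 4×.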

VX-702 + Dasatinib = compound: NC(=O)c1ccc(N(C(N)=O)c2c(F)cccc2F)nc1-c1ccc(F)cc1F [VX-702] + Cc1nc(Nc2ncc(C(=O)Nc3c(C)cccc3Cl)s2)cc(N2CCN(CCO)CC2)n1 [Dasatinib] (partner 0.075 µM)
Outline: as §1

VX-702 + Decitabine = compound: NC(=O)c1ccc(N(C(N)=O)c2c(F)cccc2F)nc1-c1ccc(F)cc1F [VX-702] + Nc1ncn([C@H]2C[C@H](O)[C@@H](CO)O2)c(=O)n1 [Decitabine] (partner 2 µM)
Outline: as §1

VX-702 + Vorinostat = compound: NC(=O)c1ccc(N(C(N)=O)c2c(F)cccc2F)nc1-c1ccc(F)cc1F [VX-702] + O=C(CCCCCCC(=O)Nc1ccccc1)NO [Vorinostat] (partner 1 µM)
Outline: as §1

Row | Cell Line | relative viability (Dabrafenib + Vorinostat; first compound 0.003 µM) | relative viability (Dabrafenib + Vorinostat; first compound 0.009487 µM) | relative viability (Dabrafenib + Vorinostat; first compound 0.03 µM) | relative viability (Dabrafenib + Vorinostat; first compound 0.09487 µM) | relative viability (Dabrafenib + Vorinostat; first compound 0.3 µM) | relative viability (VX-702 + Dasatinib; first compound 0.02 µM) | relative viability (VX-702 + Dasatinib; first compound 0.2 µM) | relative viability (VX-702 + Dasatinib; first compound 0.6325 µM) | relative viability (VX-702 + Dasatinib; first compound 2 µM) | relative viability (VX-702 + Decitabine; first compound 0.02 µM) | relative viability (VX-702 + Decitabine; first compound 0.2 µM) | relative viability (VX-702 + Decitabine; first compound 0.6325 µM) | relative viability (VX-702 + Decitabine; first compound 2 µM) | relative viability (VX-702 + Vorinostat; first compound 0.02 µM) | relative viability (VX-702 + Vorinostat; first compound 0.2 µM) | relative viability (VX-702 + Vorinostat; first compound 0.6325 µM) | relative viability (VX-702 + Vorinostat; first compound 2 µM)
1 | LC-2-ad | 0.74 | 0.736 | 0.73 | 0.613 | 0.686 | 0.724 | 0.581 | 0.619 | 0.901 | 0.849 | 0.807 | 0.821 | 0.776 | 0.693 | 0.678 | 0.773 | 0.803
2 | LCLC-97TM1 |  | 0.928 | 0.695 | 0.283 | 0.596 | 0.971 | 0.803 | 0.817 | 1.01 | 0.241 | 0.232 | 0.232 | 0.228 | 0.732 | 0.787 | 0.782 | 0.878
3 | LCLC-103H | 0.627 | 0.772 | 0.576 | 0.765 | 0.816 | 0.487 | 0.403 | 0.504 | 0.507 | 0.733 | 0.735 | 0.685 | 0.746 | 0.813 | 0.799 | 0.835 | 0.839
4 | LK-2 | 0.333 | 0.228 | 0.268 | 0.265 | 0.34 | 0.269 | 0.329 | 0.219 | 0.288 | 0.26 | 0.329 | 0.218 | 0.318 | 0.258 | 0.275 | 0.283 | 0.385
5 | LOU-NH91 |  | 0.941 | 0.964 | 0.941 | 1.07 | 0.572 | 0.553 | 0.576 | 0.364 | 0.837 | 0.832 | 0.815 | 0.766 | 0.957 | 0.845 | 0.895 | 0.857
6 | LU99A | 0.549 | 0.492 | 0.457 | 0.406 | 0.391 | 0.427 | 0.415 | 0.522 | 0.402 | 0.93 | 0.869 | 0.93 | 0.872 | 0.412 | 0.452 | 0.49 | 0.485
7 | LXF-289 | 0.73 | 0.779 | 0.759 | 0.674 | 0.789 | 0.234 | 0.199 | 0.212 | 0.225 | 0.313 | 0.403 | 0.381 | 0.357 | 0.816 | 0.765 | 0.811 | 0.786
8 | NCI-H23 |  | 0.548 | 0.592 | 0.354 | 0.409 | 0.834 | 0.896 | 1.02 | 0.674 | 0.322 | 0.35 | 0.321 | 0.317 | 0.491 | 0.566 | 0.575 | 0.669
9 | NCI-H322M |  | 0.962 |  | 0.822 | 0.74 | 0.241 | 0.265 | 0.247 | 0.249 | 0.67 | 0.668 | 0.765 | 0.745 | 0.921 | 0.874 | 0.854 | 0.93
10 | NCI-H358 | 0.86 | 0.695 | 0.741 | 0.689 | 0.72 | 0.146 | 0.144 | 0.156 | 0.16 | 0.204 | 0.333 | 0.244 | 0.223 | 0.675 | 0.601 | 0.669 | 0.972
11 | NCI-H441 |  | 0.725 | 0.994 | 0.804 | 0.839 | 0.633 | 0.565 | 0.627 | 0.697 | 0.238 | 0.258 | 0.251 | 0.212 | 0.876 | 0.616 | 0.637 | 0.76
12 | NCI-H460 | 0.744 | 0.712 | 0.662 | 0.641 | 0.639 | 0.547 | 0.471 | 0.534 | 0.408 | 0.522 | 0.494 | 0.599 | 0.469 | 0.889 | 0.692 | 0.769 | 0.925
13 | NCI-H520 | 0.82 | 0.753 | 0.63 | 0.823 | 0.74 | 0.2 | 0.194 | 0.176 | 0.24 | 0.571 | 0.513 | 0.444 | 0.418 | 0.744 | 0.649 | 0.691 | 0.74
14 | NCI-H522 |  | 1.06 | 0.864 | 0.815 | 0.93 | 0.978 | 0.7 | 0.83 | 0.984 | 0.684 | 0.775 | 0.646 | 0.753 | 1.06 | 0.899 | 1.03 | 1.11
15 | NCI-H596 |  | 0.723 | 0.416 | 0.725 | 0.515 | 0.672 | 0.579 | 0.56 | 0.57 | 1.3 | 1.55 | 1.15 | 1.16 | 0.636 | 0.439 | 0.637 | 0.581
16 | NCI-H647 | 0.814 | 0.529 | 0.445 | 0.401 | 0.524 | 0.151 | 0.171 | 0.211 | 0.246 | 0.475 | 0.383 | 0.335 | 0.306 | 0.563 | 0.499 | 0.304 | 0.897
17 | NCI-H650 |  | 0.346 | 0.408 | 0.241 | 0.218 | 0.481 |  | 0.534 | 0.533 | 0.385 | 0.344 | 0.3 | 0.324 | 0.607 | 0.309 | 0.494 | 0.609
18 | NCI-H1563 |  |  |  |  |  | 0.395 | 0.445 | 0.416 | 0.451 |  |  |  |  |  |  |  | 
19 | NCI-H1623 |  |  |  |  |  | 0.515 | 0.453 | 0.422 | 0.5 |  |  |  |  |  |  |  | 
20 | NCI-H1648 | 0.459 | 0.429 |  | 0.499 | 0.421 |  |  |  |  | 0.443 | 0.457 | 0.469 | 0.481 | 0.242 | 0.271 | 0.397 | 0.364
21 | NCI-H1792 |  |  |  |  |  | 0.556 | 0.781 | 0.714 | 0.714 | 0.555 | 0.614 | 0.491 | 0.532 |  |  |  | 
22 | NCI-H2228 | 0.501 | 0.53 | 0.656 | 0.381 | 0.877 | 0.466 | 0.499 | 0.461 | 0.535 |  |  |  |  | 0.536 | 0.631 | 0.467 | 0.896
